ChEMBL document CHEMBL1201862, “PubChem BioAssay data set” (2004)
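96-well plates; 48 h exposure; 5 concentrations. Endpoints by linear interpolation between flanking doses. Not reached: highest tested concentration assigned. GI50 = concentration required for 50% inhibition of growth.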 Activity calls are given as the source filed them. Rule as the data show it: active = GI50 up to about 1.1 µM and inactive = higher.

What was measured:
Assay in all cases: NCI anticancer screen, dose series, 48 h
HCC 2998 = test system: HCC 2998
SK-MEL-5 = test system: SK-MEL-5
CAKI-1 = test system: CAKI-1
KM12 = test system: KM12
M14 = test system: M14
SR = test system: SR
LOX IMVI = test system: LOX IMVI
K562 = test system: K562
RPMI-8226 = test system: RPMI-8226
SNB-19 = test system: SNB-19
HL-60 = test system: HL-60
NCI-H522 = test system: NCI-H522
OVCAR-8 = test system: OVCAR-8
HOP-92 = test system: HOP-92
HT-29 = test system: HT-29
ACHN = test system: ACHN
HCT-116 = test system: HCT-116

Measured: GI50

CCN1C(=O)N2C(OC)c3ccccc3C(Br)C2(OC)C1=O (stereo not drawn)
inactive: HCC 2998 > 100 µM | SK-MEL-5 > 100 µM | CAKI-1 > 100 µM | KM12 > 100 µM | M14 > 100 µM | SR > 100 µM | LOX IMVI > 100 µM | K562 > 100 µM | RPMI-8226 > 100 µM | SNB-19 > 100 µM | HL-60 > 100 µM | NCI-H522 > 100 µM | OVCAR-8 > 100 µM

O=C(Nc1ccccc1-c1n[nH]c(S)nc1=O)C(F)(F)F
inactive: HCC 2998 > 100 µM | HOP-92 > 100 µM | SK-MEL-5 > 100 µM | CAKI-1 > 100 µM | KM12 > 100 µM | HT-29 > 100 µM | M14 > 100 µM | SR > 100 µM | ACHN > 100 µM | LOX IMVI > 100 µM | K562 > 100 µM | HCT-116 > 100 µM | SNB-19 > 100 µM | NCI-H522 64.3 µM | OVCAR-8 > 100 µM

CC(C)(C)c1ccc(OCCOCCOc2ccc(C(C)(C)C)cc2S(N)(=O)=O)c(S(N)(=O)=O)c1
inactive: HCC 2998 > 100 µM | HOP-92 24.6 µM | SK-MEL-5 8.13 µM | CAKI-1 > 100 µM | KM12 52.1 µM | HT-29 6.84 µM | M14 61.4 µM | ACHN 29.1 µM | LOX IMVI 23.7 µM | K562 > 100 µM | HCT-116 17.4 µM | RPMI-8226 7.55 µM | SNB-19 > 100 µM | HL-60 14.5 µM | OVCAR-8 > 100 µM

CC12CCCC(C#N)(C1)OC2=O (stereo not drawn)
inactive: HOP-92 > 100 µM | SK-MEL-5 > 100 µM | CAKI-1 > 100 µM | KM12 > 100 µM | HT-29 > 100 µM | M14 > 100 µM | SR > 100 µM | ACHN > 100 µM | K562 > 100 µM | HCT-116 > 100 µM | SNB-19 > 100 µM | HL-60 > 100 µM | NCI-H522 > 100 µM | OVCAR-8 > 100 µM

Cc1ccc(NC(=O)SCCC(=O)O)cc1
inactive: HCC 2998 > 100 µM | CAKI-1 > 100 µM | KM12 > 100 µM | HT-29 > 100 µM | M14 > 100 µM | SR > 100 µM | ACHN > 100 µM | LOX IMVI > 100 µM | K562 > 100 µM | HCT-116 > 100 µM | RPMI-8226 > 100 µM | SNB-19 > 100 µM | HL-60 > 100 µM | NCI-H522 > 100 µM | OVCAR-8 > 100 µM

O=c1[nH]c(-c2ccc([N+](=O)[O-])cc2)nc2ccc(Cl)cc12
inactive: HCC 2998 > 100 µM | HOP-92 26.8 µM | SK-MEL-5 > 100 µM | KM12 > 100 µM | HT-29 > 100 µM | ACHN > 100 µM | K562 17.9 µM | HCT-116 > 100 µM | RPMI-8226 47.1 µM | SNB-19 66.2 µM | OVCAR-8 > 100 µM

CSc1nc2c(ncn2C2OC(CO)C(O)C(O)C2O)c(=O)n1C (stereo not drawn)
inactive: HCC 2998 > 100 µM | HOP-92 > 100 µM | SK-MEL-5 > 100 µM | KM12 > 100 µM | HT-29 > 100 µM | LOX IMVI > 100 µM | K562 > 100 µM | HCT-116 > 100 µM | RPMI-8226 > 100 µM | SNB-19 > 100 µM | HL-60 > 100 µM | NCI-H522 > 100 µM | OVCAR-8 > 100 µM

CC1(C)OC2C(CO)OC(N/C(=N/C#N)Oc3ccccc3)C2O1 (stereo not drawn)
inactive: HCC 2998 > 100 µM | SK-MEL-5 > 100 µM | KM12 > 100 µM | HT-29 > 100 µM | M14 > 100 µM | SR > 100 µM | ACHN > 100 µM | LOX IMVI > 100 µM | K562 > 100 µM | HCT-116 > 100 µM | RPMI-8226 > 100 µM | SNB-19 > 100 µM | HL-60 > 100 µM | OVCAR-8 > 100 µM

Cn1c(=O)c2ccccc2c2nc3ccccc3nc21
inactive: HCC 2998 > 100 µM | SK-MEL-5 > 100 µM | KM12 > 100 µM | HT-29 > 100 µM | SR > 100 µM | ACHN > 100 µM | K562 > 100 µM | HCT-116 > 100 µM | RPMI-8226 > 100 µM | SNB-19 > 100 µM | OVCAR-8 > 100 µM

C/C(CC(=O)Nc1cc(Cl)c(Cl)cc1Cl)=N\NC(N)=O
inactive: HCC 2998 > 100 µM | HOP-92 39.1 µM | SK-MEL-5 > 100 µM | KM12 > 100 µM | HT-29 > 100 µM | M14 > 100 µM | LOX IMVI > 100 µM | K562 > 100 µM | HCT-116 > 100 µM | RPMI-8226 > 100 µM | HL-60 > 100 µM | NCI-H522 28.1 µM | OVCAR-8 > 100 µM

O=c1n(C2CCCCC2)c(=C(Cl)Cl)c(=C(Cl)Cl)n1C1CCCCC1
inactive: HCC 2998 > 100 µM | SK-MEL-5 > 100 µM | KM12 > 100 µM | HT-29 > 100 µM | SR > 100 µM | ACHN > 100 µM | LOX IMVI > 100 µM | K562 > 100 µM | HCT-116 85.7 µM | RPMI-8226 34.6 µM | SNB-19 > 100 µM | HL-60 39.6 µM | NCI-H522 > 100 µM | OVCAR-8 > 100 µM

COC(=O)c1c(-c2ccccc2)cc2c3cc(-c4ccccc4)c(C(=O)OC)n3c3ccccc3n12
inactive: HCC 2998 > 100 µM | SK-MEL-5 > 100 µM | CAKI-1 > 100 µM | KM12 > 100 µM | HT-29 > 100 µM | M14 > 100 µM | ACHN > 100 µM | LOX IMVI > 100 µM | K562 > 100 µM | HCT-116 > 100 µM | RPMI-8226 > 100 µM | SNB-19 > 100 µM | HL-60 > 100 µM | NCI-H522 > 91 µM | OVCAR-8 > 100 µM

CN1CCCC2[C@@H]3CCC4c5nonc5CC[C@]4(C)C3CC[C@@]21C (stereo partly drawn)
inactive: SK-MEL-5 42.5 µM | CAKI-1 > 100 µM | KM12 > 100 µM | HT-29 38.1 µM | SR > 100 µM | ACHN > 100 µM | K562 67.8 µM | HCT-116 > 100 µM | RPMI-8226 > 100 µM | SNB-19 > 100 µM | NCI-H522 > 100 µM | OVCAR-8 > 100 µM

CC1CCC2(CC1)NN=c1s/c(=C\c3ccc(O)cc3)c(=O)n1N2 (stereo not drawn)
inactive: HCC 2998 > 100 µM | SK-MEL-5 > 100 µM | KM12 > 100 µM | HT-29 > 100 µM | M14 > 100 µM | LOX IMVI 81.8 µM | K562 > 100 µM | HCT-116 > 100 µM | RPMI-8226 > 100 µM | SNB-19 > 100 µM | HL-60 > 100 µM | NCI-H522 > 100 µM | OVCAR-8 > 100 µM

O=NN1C(c2ccccc2)C2CCCC(C2=O)C1c1ccccc1 (stereo not drawn)
inactive: HCC 2998 16.6 µM | HOP-92 22 µM | SK-MEL-5 18.7 µM | CAKI-1 41.4 µM | KM12 32.5 µM | HT-29 18.1 µM | LOX IMVI 22.9 µM | K562 21.1 µM | HCT-116 25.5 µM | RPMI-8226 22.3 µM | SNB-19 42.6 µM | HL-60 19.3 µM | NCI-H522 19.1 µM | OVCAR-8 37.7 µM

COc1ccc(S(=O)(=O)N/N=C/CN2C(=O)c3ccccc3C2=O)cc1OC
inactive: HCC 2998 > 100 µM | SK-MEL-5 > 100 µM | CAKI-1 > 100 µM | KM12 > 100 µM | HT-29 > 100 µM | M14 > 100 µM | SR > 100 µM | ACHN > 100 µM | LOX IMVI > 100 µM | K562 > 100 µM | HCT-116 > 100 µM | RPMI-8226 > 100 µM | SNB-19 > 100 µM | HL-60 > 100 µM | NCI-H522 > 100 µM | OVCAR-8 > 100 µM

CCOC(=O)NC(=O)c1cn(CCCCCCOC(=O)NCCCCCCNC(=O)OCCCCCCn2cc(C(=O)NC(=O)OCC)c(=O)[nH]c2=O)c(=O)[nH]c1=O
inactive: HCC 2998 > 100 µM | SK-MEL-5 > 100 µM | CAKI-1 > 100 µM | KM12 > 100 µM | HT-29 > 100 µM | M14 > 100 µM | ACHN > 100 µM | LOX IMVI > 100 µM | K562 > 100 µM | HCT-116 > 100 µM | RPMI-8226 > 100 µM | SNB-19 > 100 µM | HL-60 > 100 µM | NCI-H522 > 100 µM | OVCAR-8 > 100 µM

O=[N+]([O-])c1ccc(/C=C/c2ccc(/N=N/c3ccc(/C=C/c4ccc([N+](=O)[O-])cc4S(=O)(=O)O)c(S(=O)(=O)O)c3)cc2S(=O)(=O)O)c(S(=O)(=O)O)c1
inactive: HCC 2998 43.6 µM | HOP-92 > 53.1 µM | SK-MEL-5 > 100 µM | KM12 > 100 µM | HT-29 > 100 µM | LOX IMVI > 100 µM | K562 > 100 µM | HCT-116 > 100 µM | HL-60 > 100 µM | NCI-H522 > 100 µM | OVCAR-8 > 100 µM

Nc1nc2[nH]c(=O)cnc2c(=O)[nH]1 [ISOXANTHOPTERIN]
inactive: HCC 2998 > 125 µM | HOP-92 > 125 µM | SK-MEL-5 > 125 µM | CAKI-1 > 125 µM | KM12 > 125 µM | HT-29 > 125 µM | LOX IMVI > 125 µM | K562 > 125 µM | HCT-116 > 125 µM | RPMI-8226 > 125 µM | SNB-19 > 125 µM | HL-60 > 125 µM | NCI-H522 > 19.8 µM | OVCAR-8 > 125 µM
